Test results as given in patent US11084829B2, “Ubiquitin-specific-processing protease 7 (USP7) modulators and uses thereof” (RAPT THERAPEUTICS, INC., priority 2018, dated 2021).

Legend:
Format in all cases: cell-based
[1] = test system: H526 cells; test: RNASeq transcriptomic profiling and gene set enrichment in H526 cells; conditions: treatment for 24 or 48 hours
Protocol: RNA was extracted from approximately 1 million cells using the Allprep DNA/RNA Mini Kit (Qiagen). Whole transcriptome non-stranded libraries were prepared using the TruSeq RNA Library Prep Kit v2 (Illumina). Sequencing was performed on Illumina NovaSeq using paired-end mode, 200 cycles, targeting 40 million reads per sample, by MedGenome. Sequencing results were processed on the Seven Bridges Genomics platform through Kallisto Quant (version 0.43.1) aligning to the gencode.v27 transcript reference. Aligned reads were imported by tximport (version 1.10.1) and Treatment fold change and significance were calculated with DESeq2 (version 1.22.2) with an experimental design of “˜Time+Treatment+Time: Treatment” on genes with at least 10 counts. Shrunk log 2 fold changes (lfcShrink function, type=“apeglm”) were used for significance calculation.
In order to identify pathways impacted by USP7 inhibition, RNASeq was used to profile transcriptomic changes in H526 cells following treatment with the USP7 inhibitor 3-((7-(5-chloro-3-methyl-2-(((R)-morpholin-2-yl)methyl)phenyl)thieno[3,2-b]pyridin-2-yl)methyl)-6,6-dimethyl-3-azabicyclo[3.1.0]hexane-2,4-dione for 24 or 48 hours. […] Measurement of transcriptional changes prior to 72 hours should thus uncover programs triggered by USP7 inhibition without being confounded by apoptosis pathways themselves. […]

[2] = test system: phosphorylated S6 (Ser235/236); test: Phospho-S6 ELISA; conditions: treatment with the compound alone
Protocol: (§1) For Western blotting, compound-treated cells were lysed in RIPA lysis buffer (ThermoScientific) containing Halt Protease and Phosphatase Inhibitor Cocktail (Life Technologies). Lysates were quantified using the BCA protein assay (Pierce) and equivalent protein was separated by SDS-PAGE (4-12%, ThermoScientific). Following electrophoresis, proteins were transferred to PVDF membranes. […] Caspase activation assays were performed on compound-treated cells using the Caspase-Glo 3/7 Assay Kit (Promega) according to the manufacturer's protocol, and luminescence was measured using a CLARIOstar plate reader (BMG LABTECH). […] Data were collected using FACSCanto (Becton Dickinson) and Attune (Thermo Fisher Scientific) flow cytometers and analyzed with FlowJo software (FlowJo LLC). […] Lysates were quantified using the BCA protein assay (Pierce) and equivalent protein was used in the PathScan Phospho-S6 Ribosomal Protein (Ser235/236) Sandwich ELISA Kit (Cell Signaling) according to the manufacturer's protocol. Absorbance was measured using the Spectramax 300 plate reader (Molecular Devices). […]

[3] = test system: phosphorylated histone H2AX (γ-H2AX); test: γ-H2AX measurement (flow cytometry)
Protocol: as §1

[4] = test system: H526 cells; test: Compound synergy (Bliss independence) in H526 cells
Protocol: (§2) CHP-134 was purchased from Sigma Aldrich, MOLM-13 was purchased from AddexBio, and NB-1 was purchased from Sekisui XenoTech. All other cell lines were purchased from American Type Culture Collection. For all cell lines, identity was confirmed by short tandem repeat profiling and culturing was performed in recommended growth medium. For studies evaluating cellular effects of compound treatment, 250 to 2,000 cells in 40 μl of recommended medium were seeded per well in 384-well plates (Corning 3764). DMSO-solubilized compounds were added in duplicate in a two-fold dilution series using a D300e Digital Dispenser (Hewlett-Packard). Following a 5-day incubation, cell viability was measured using CellTiter-Glo (Promega) following the manufacturer's instructions. Luminescence was measured using a CLARIOstar plate reader (BMG LABTECH) and normalized to that of DMSO-treated cells. IC50 values were determined by non-linear regression using a 4-parameter fit in Prism (GraphPad Software). Inhibitor profiling of the 430-cell line panel was conducted and analyzed similarly.
Cancer Cell Line Encyclopedia (CCLE) mutation data was downloaded from https://data.broadinstitute.org/ccleiCCLE_DepMap_18Q2_maf_20180502.txt.gz. Genes were considered mutated if they were annotated in CCLE as containing variants that were either a TCGA Hotspot, a COSMIC Hotspot, or a deleterious variant. Genes with at least 6 mutated cell lines out of the 397 cell lines that overlapped with the cell line screening panel were tested one gene at a time in linear models or coordinately in multivariate models where the fraction cell signal at 1 μM compound was the dependent variable. For compound synergy analysis, a Bliss-independence model was used. Briefly, the products of the fraction of maximal cell signal for each of the tested compounds alone were calculated as the expected signal in the absence of any compound interaction. The log2 of the ratio of expected:observed signal was calculated to indicate synergy (positive) or interference (negative) interactions. For in vivo studies, interval-censored survival analysis was performed using the icenReg package (reference: https://cran.r-project.org/web/packages/icenReg/citation.html), using the “ic_par” parametric regression model with proportional hazards and a Weibull distribution.
Tests were conducted to determine whether the USP7 inhibitor 3-((7-(5-chloro-3-methyl-2-(((R)-morpholin-2-yl)methyl)phenyl)thieno[3,2-b]pyridin-2-yl)methyl)-6,6-dimethyl-3-azabicyclo[3.1.0]hexane-2,4-dione potentiates the activity of DNA-damaging agents commonly used for small cell lung cancer chemotherapy, namely carboplatin, doxorubicin, and the PARP inhibitor olaparib.
The effect of combining the USP7 inhibitor 3-((7-(5-chloro-3-methyl-2-(((R)-morpholin-2-yl)methyl)phenyl)thieno[3,2-b]pyridin-2-yl)methyl)-6,6-dimethyl-3-azabicyclo[3.1.0]hexane-2,4-dione with the PIM kinase inhibitor AZD 1208, the PI3K inhibitor pictilisib and the PI3K inhibitor taselisib in the p53 mutant H526 cell line was tested. […] Both PIM and PI3K promote the activity of mammalian target of rapamycin (mTOR), which regulates cellular protein translation and controls phosphorylation of S6 at the Ser235/236 site.

[5] = test system: H526 cells; test: Apoptosis (caspase-3/7 induction, sub-G1 population) in H526 cells; conditions: starting 72 hours post treatment, data not shown
Protocol: as §1

[6] = test system: NB-1; test: Cell viability (CellTiter-Glo), NB-1; conditions: Homo sapiens, NB1; NB-1, neuroblastoma, MYCN amplified, p53 wild-type
Protocol: as §2
(§3) USP7 has been reported to stabilize MYCN (also referred to as MYCN proto-oncogene, a gene that is a member of the MYC family which is over-expressed in a variety of tumors). Since MYCN amplification is an established driver mutation in neuroblastoma, the effect of USP7 inhibition on a panel of p53 wild-type, MYCN- or MYC-amplified neuroblastoma cell lines was tested. The USP7 inhibitors of Examples 31 and 124 reduced viability of all three MYCN-amplified and two MYC-amplified neuroblastoma cell lines tested as shown in Table 4. Idasanutlin was used as a positive control, and as expected these cell lines were also sensitive to this compound.

[7] = test system: MOLM13; test: Cell viability (CellTiter-Glo), MOLM13; conditions: Homo sapiens, MOLM-13; MOLM13, AML, p53 wild-type
Protocol: as §2
(§4) USP7 inhibition by the compounds of Examples 31 and 124 reduced the viability of several p53-wild type blood cancer cell lines, including M07e, OCI-AML5 and MOLM13, in vitro as shown in the following Table 3. Idasanutlin was used as a positive control, and as expected these cell lines were also sensitive to this compound.

[8] = test system: JJN-3; test: Cell viability (CellTiter-Glo), JJN-3; conditions: Homo sapiens; JJN-3, multiple myeloma, p53-mutant
Protocol: as §2
(§5) In addition to the many p53 wild-type cell lines in the cell line panel that were sensitive to USP7 inhibition, a subset of p53 mutant cell lines that were inhibited by our USP7 inhibitors were identified and are shown in Table 5.

[9] = test system: NCI-N87; test: Cell viability (CellTiter-Glo), NCI-N87; conditions: Homo sapiens; NCI-N87, gastric, p53-mutant
Protocol: as §2, §5

[10] = test system: M07e; test: Cell viability (CellTiter-Glo), M07e; conditions: M-07e, AML, p53 wild-type
Protocol: as §2, §4

[11] = test system: CHP-134; test: Cell viability (CellTiter-Glo), CHP-134; conditions: Homo sapiens; CHP-134, neuroblastoma, MYCN amplified, p53 wild-type
Protocol: as §2, §3

[12] = test system: NCI-H929; test: Cell viability (CellTiter-Glo), NCI-H929; conditions: Homo sapiens; NCI-H929, MM, p53 wild-type
Protocol: as §2, §4

[13] = test system: NCI-H2009; test: Cell viability (CellTiter-Glo), NCI-H2009; conditions: Homo sapiens; NCI-H2009, lung, adenocarcinoma, p53-mutant
Protocol: as §2, §5

[14] = test system: HCC1806; test: Cell viability (CellTiter-Glo), HCC1806; conditions: Homo sapiens; HCC1806, breast, triple-negative, p53-mutant
Protocol: as §2, §5

[15] = test system: EOL-1; test: Cell viability (CellTiter-Glo), EOL-1; conditions: Homo sapiens, EOL1; EOL-1, AML, p53 wild-type
Protocol: as §2, §4

[16] = test system: LA-N-2; test: Cell viability (CellTiter-Glo), LA-N-2; conditions: LA-N-2, neuroblastoma, MYCN-amplified, p53-mutant
Protocol: as §2, §5

[17] = test system: SK-N-DZ; test: Cell viability (CellTiter-Glo), SK-N-DZ; conditions: Homo sapiens, neuroblastoma, MYCN-amplified, p53-mutant
Protocol: as §2, §5

[18] = test system: SK-N-SH; test: Cell viability (CellTiter-Glo), SK-N-SH; conditions: Homo sapiens, neuroblastoma, MYC amplified, p53 wild-type
Protocol: as §2
(§6) USP7 has been reported to stabilize MYCN (also referred to as MYCN proto-oncogene, a gene that is a member of the MYC family which is over-expressed in a variety of tumors). […]

[19] = test system: HCC1937; test: Cell viability (CellTiter-Glo), HCC1937; conditions: Homo sapiens; HCC1937, breast, triple-negative, BRCA1 mutant, p53-mutant
Protocol: as §2, §5

[20] = test system: MOLP8; test: Cell viability (CellTiter-Glo), MOLP8; conditions: Homo sapiens, MOLP-8; MOLP8, MM, p53 wild-type
Protocol: as §2, §4

[21] = test system: H526; test: Cell viability (CellTiter-Glo), H526
Protocol: as §2, §5
The effect of pharmacological inhibition of USP7 on the viability of the p53 mutant small cell lung cancer cell line, H526 was further evaluated. […] In contrast, idasanutlin, whose inhibitory effect is dependent on a functional p53 pathway, had no effect.

[22] = test system: SH-SY5Y; test: Cell viability (CellTiter-Glo), SH-SY5Y; conditions: Homo sapiens, neuroblastoma, MYC amplified, p53 wild-type
Protocol: as §2, §3

[23] = test system: EBC-1; test: Cell viability (CellTiter-Glo), EBC-1; conditions: Homo sapiens; EBC-1, lung, squamous cell carcinoma, p53-mutant
Protocol: as §2, §5

[24] = test system: IMR-32; test: Cell viability (CellTiter-Glo), IMR-32; conditions: Homo sapiens; IMR-32, neuroblastoma, MYCN amplified, p53 wild-type
Protocol: as §2, §6

[25] = test system: MM.1S; test: Cell viability (CellTiter-Glo), MM.1S; conditions: Homo sapiens, MM1.S, p53 wild-type
Protocol: as §2, §4

[26] = test system: MHCC97-H; test: Cell viability (CellTiter-Glo), MHCC97-H; conditions: Homo sapiens, MHCC97H, hepatocellular carcinoma, p53-mutant
Protocol: as §2, §5

[27] = test system: HUH-7; test: Cell viability (CellTiter-Glo), HUH-7; conditions: Homo sapiens; HUH-7, hepatocellular carcinoma, p53-mutant
Protocol: as §2, §5

[28] = test system: NCI-H820; test: Cell viability (CellTiter-Glo), NCI-H820; conditions: NCI-H820, lung, papillary adenocarcinoma, p53-mutant
Protocol: as §2, §5

[29] = test system: OCI-AML5; test: Cell viability (CellTiter-Glo), OCI-AML5; conditions: Homo sapiens, OCI-AML-5, p53 wild-type
Protocol: as §2, §4

## Cc1cc(Cl)cc(-c2ccnc3cc(CN4C(=O)C5C(C4=O)C5(C)C)sc23)c1C[C@@H]1CNCCO1 (stereo partly drawn) [3-((7-(5-chloro-3-methyl-2-(((R)-morpholin-2-yl)methyl)phenyl)thieno[3,2-b]pyridin-2-yl)methyl)-6,6-dimethyl-3-azabicyclo[3.1.0]hexane-2,4-dione]
[1]
  transcriptomic changes (RNASeq): upregulation of a large number of genes normally silenced by the polycomb repressive complex 2 (PRC2)
[2]
  levels of phosphorylated S6 (Ser235/236): decreased levels of phosphorylated S6 (Ser235/236)
[3]; USP7 inhibitor alone
  levels of phosphorylated histone H2AX (γ-H2AX): did not increase levels of phosphorylated histone H2AX (γ-H2AX)
[3]; combination of the USP7 inhibitor and carboplatin
  levels of γ-H2AX: increased γ-H2AX
[4]; combination with carboplatin
  synergy with carboplatin: modest synergy
[4]; combination with doxorubicin
  synergy with doxorubicin: modest synergy
[4]; combination with the PARP inhibitor olaparib
  synergy with olaparib: modest synergy
[4]; compound dosed with itself (control)
  synergy when dosed with itself: no synergy was observed
[4]; p53 mutant, combination with the PI3K inhibitor pictilisib
  synergy with pictilisib: strongly synergized
[4]; p53 mutant, combination with the PI3K inhibitor taselisib
  synergy with taselisib: strongly synergized
[4]; p53 mutant, combination with the PIM kinase inhibitor AZD 1208
  synergy with AZD 1208: strongly synergized
[5]
  apoptosis (caspase-3/7 induction, sub-G1 population): induced apoptosis in H526 cells in a dose-dependent manner

## COc1cc(C(=O)O)ccc1NC(=O)[C@@H]1N[C@@H](CC(C)(C)C)[C@](C#N)(c2ccc(Cl)cc2F)[C@H]1c1cccc(Cl)c1F [Idasanutlin, reference compound]
[6]
  CC50: 100 nM
[7]
  CC50: 20 nM
[8]
  CC50: > 25000 nM
[9]
  CC50: 8600 nM
[10]
  CC50: 30 nM
[11]
  CC50: 10 nM
[12]
  CC50: 200 nM
[13]
  CC50: > 25000 nM
[14]
  CC50: 7500 nM
[15]
  CC50: 50 nM
[16]
  CC50: 5300 nM
[17]
  CC50: > 12500 nM
[18]
  CC50: 200 nM
[19]
  CC50: 7100 nM
[20]
  CC50: 300 nM
[21]; H526, p53 mutant small cell lung cancer, in vitro
  effect on viability of H526: had no effect
[21]; Homo sapiens, NCI-H526, H526, lung, small cell, p53-mutant, read-out: CC50
  CC50: 6500 nM
[22]
  CC50: 100 to 500 nM
[23]
  CC50: 16200 nM
[24]
  CC50: 240 nM
[25]
  CC50: 20 nM
[26]
  CC50: > 25000 nM
[27]
  CC50: > 25000 nM
[28]
  CC50: 9700 nM
[29]
  CC50: 40 nM
